Laboratory results from the CheMixHub ionic liquid set.
± gives the uncertainty stated by the source.

Assay: xn = mol fraction of the nth substance listed
Conditions: for electrical conductivity: 101 kPa

Compound `CC(=O)[O-].CC[NH3+]` + O has an electrical conductivity (298.15 K, x2 = 0.6519) of 1.55 ± 0.031 S/m, an electrical conductivity (298.15 K, x2 = 0.8802) of 2.91 ± 0.06 S/m and an electrical conductivity (298.15 K, x2 = 0.9004) of 3.01 ± 0.06 S/m. It also gave an electrical conductivity (298.15 K, x2 = 0.91) of 3.05 ± 0.06 S/m and an electrical conductivity (298.15 K, x2 = 0.93) of 3.06 ± 0.06 S/m.

For `CCCCCCCCCCCCCCCC[n+]1ccccc1.O=C([O-])c1ccccc1O` + O, the electrical conductivity (293.15 K, x1 = 7.2e-07) was 0.00046 ± 2.8e-05 S/m, the electrical conductivity (293.15 K, x1 = 1.44e-06) was 0.000708 ± 4.3e-05 S/m and the electrical conductivity (293.15 K, x1 = 1.98e-06) was 0.000945 ± 5.7e-05 S/m. It also gave an electrical conductivity (293.15 K, x1 = 2.34e-06) of 0.00114 ± 6.9e-05 S/m, an electrical conductivity (293.15 K, x1 = 2.88e-06) of 0.00129 ± 7.8e-05 S/m and an electrical conductivity (293.15 K, x1 = 3.42e-06) of 0.00142 ± 8.6e-05 S/m. The electrical conductivity (293.15 K, x1 = 3.96e-06) was 0.00156 ± 9.4e-05 S/m, the electrical conductivity (293.15 K, x1 = 4.32e-06) was 0.00167 ± 0.0001 S/m and the electrical conductivity (293.15 K, x1 = 4.87e-06) was 0.00181 ± 0.00011 S/m. It also gave an electrical conductivity (293.15 K, x1 = 5.23e-06) of 0.00187 ± 0.00011 S/m, an electrical conductivity (293.15 K, x1 = 5.59e-06) of 0.00204 ± 0.00012 S/m and an electrical conductivity (293.15 K, x1 = 5.95e-06) of 0.00212 ± 0.00013 S/m. For the same compound, the electrical conductivity (293.15 K, x1 = 6.31e-06) was 0.00224 ± 0.00013 S/m, the electrical conductivity (293.15 K, x1 = 6.49e-06) was 0.00231 ± 0.00014 S/m and the electrical conductivity (293.15 K, x1 = 6.85e-06) was 0.00243 ± 0.00015 S/m. For the same compound, the electrical conductivity (293.15 K, x1 = 7.21e-06) was 0.00251 ± 0.00015 S/m, the electrical conductivity (298.15 K, x1 = 7.2e-07) was 0.000513 ± 3.1e-05 S/m and the electrical conductivity (298.15 K, x1 = 1.44e-06) was 0.000794 ± 4.9e-05 S/m. The electrical conductivity (298.15 K, x1 = 1.98e-06) was 0.00105 ± 6.3e-05 S/m, the electrical conductivity (298.15 K, x1 = 2.34e-06) was 0.00128 ± 7.9e-05 S/m and the electrical conductivity (298.15 K, x1 = 2.88e-06) was 0.00148 ± 9.1e-05 S/m. It also gave an electrical conductivity (298.15 K, x1 = 3.42e-06) of 0.00163 ± 9.9e-05 S/m, an electrical conductivity (298.15 K, x1 = 3.96e-06) of 0.00178 ± 0.00011 S/m and an electrical conductivity (298.15 K, x1 = 4.32e-06) of 0.00191 ± 0.00012 S/m. It also gave an electrical conductivity (298.15 K, x1 = 4.87e-06) of 0.00205 ± 0.00013 S/m, an electrical conductivity (298.15 K, x1 = 5.23e-06) of 0.00217 ± 0.00013 S/m and an electrical conductivity (298.15 K, x1 = 5.59e-06) of 0.00231 ± 0.00014 S/m. It also gave an electrical conductivity (298.15 K, x1 = 5.95e-06) of 0.00242 ± 0.00015 S/m, an electrical conductivity (298.15 K, x1 = 6.31e-06) of 0.00254 ± 0.00015 S/m and an electrical conductivity (298.15 K, x1 = 6.49e-06) of 0.00263 ± 0.00016 S/m. The electrical conductivity (298.15 K, x1 = 6.85e-06) was 0.00274 ± 0.00017 S/m, the electrical conductivity (298.15 K, x1 = 7.21e-06) was 0.00283 ± 0.00017 S/m and the electrical conductivity (303.15 K, x1 = 7.2e-07) was 0.000569 ± 3.4e-05 S/m. For the same compound, the electrical conductivity (303.15 K, x1 = 1.44e-06) was 0.000883 ± 5.3e-05 S/m, the electrical conductivity (303.15 K, x1 = 1.98e-06) was 0.00117 ± 7.4e-05 S/m and the electrical conductivity (303.15 K, x1 = 2.34e-06) was 0.00144 ± 8.8e-05 S/m. The electrical conductivity (303.15 K, x1 = 2.88e-06) was 0.00168 ± 0.0001 S/m, the electrical conductivity (303.15 K, x1 = 3.42e-06) was 0.00186 ± 0.00011 S/m and the electrical conductivity (303.15 K, x1 = 3.96e-06) was 0.00202 ± 0.00012 S/m. The electrical conductivity (303.15 K, x1 = 4.32e-06) was 0.00217 ± 0.00013 S/m, the electrical conductivity (303.15 K, x1 = 4.69e-06) was 0.00232 ± 0.00014 S/m and the electrical conductivity (303.15 K, x1 = 5.23e-06) was 0.00247 ± 0.00015 S/m. The electrical conductivity (303.15 K, x1 = 5.59e-06) was 0.00261 ± 0.00016 S/m, the electrical conductivity (303.15 K, x1 = 5.95e-06) was 0.00273 ± 0.00016 S/m and the electrical conductivity (303.15 K, x1 = 6.31e-06) was 0.00285 ± 0.00017 S/m. For the same compound, the electrical conductivity (303.15 K, x1 = 6.49e-06) was 0.00296 ± 0.00018 S/m, the electrical conductivity (303.15 K, x1 = 6.85e-06) was 0.00307 ± 0.00018 S/m and the electrical conductivity (303.15 K, x1 = 7.21e-06) was 0.00319 ± 0.00019 S/m. For the same compound, the electrical conductivity (308.15 K, x1 = 7.2e-07) was 0.000627 ± 3.8e-05 S/m, the electrical conductivity (308.15 K, x1 = 1.44e-06) was 0.000973 ± 5.8e-05 S/m and the electrical conductivity (308.15 K, x1 = 1.98e-06) was 0.00129 ± 8.3e-05 S/m. For the same compound, the electrical conductivity (308.15 K, x1 = 2.34e-06) was 0.00159 ± 9.7e-05 S/m, the electrical conductivity (308.15 K, x1 = 2.88e-06) was 0.00186 ± 0.00011 S/m and the electrical conductivity (308.15 K, x1 = 3.42e-06) was 0.0021 ± 0.00013 S/m. It also gave an electrical conductivity (308.15 K, x1 = 3.96e-06) of 0.0023 ± 0.00014 S/m, an electrical conductivity (308.15 K, x1 = 4.32e-06) of 0.00247 ± 0.00015 S/m and an electrical conductivity (308.15 K, x1 = 4.69e-06) of 0.00263 ± 0.00016 S/m. For the same compound, the electrical conductivity (308.15 K, x1 = 5.23e-06) was 0.0028 ± 0.00017 S/m, the electrical conductivity (308.15 K, x1 = 5.59e-06) was 0.00294 ± 0.00018 S/m and the electrical conductivity (308.15 K, x1 = 5.95e-06) was 0.00309 ± 0.00019 S/m. It also gave an electrical conductivity (308.15 K, x1 = 6.31e-06) of 0.00321 ± 0.00019 S/m, an electrical conductivity (308.15 K, x1 = 6.49e-06) of 0.00333 ± 0.0002 S/m and an electrical conductivity (308.15 K, x1 = 6.85e-06) of 0.00345 ± 0.00021 S/m. For the same compound, the electrical conductivity (308.15 K, x1 = 7.21e-06) was 0.00358 ± 0.00021 S/m, the electrical conductivity (313.15 K, x1 = 7.2e-07) was 0.000668 ± 4e-05 S/m and the electrical conductivity (313.15 K, x1 = 1.44e-06) was 0.00122 ± 7.4e-05 S/m. For the same compound, the electrical conductivity (313.15 K, x1 = 2.34e-06) was 0.00177 ± 0.00011 S/m, the electrical conductivity (313.15 K, x1 = 3.24e-06) was 0.0023 ± 0.00014 S/m and the electrical conductivity (313.15 K, x1 = 3.96e-06) was 0.00268 ± 0.00016 S/m. For the same compound, the electrical conductivity (313.15 K, x1 = 4.69e-06) was 0.003 ± 0.00018 S/m, the electrical conductivity (313.15 K, x1 = 5.41e-06) was 0.00324 ± 0.0002 S/m and the electrical conductivity (313.15 K, x1 = 5.95e-06) was 0.00348 ± 0.00021 S/m. It also gave an electrical conductivity (313.15 K, x1 = 6.49e-06) of 0.00375 ± 0.00023 S/m, an electrical conductivity (313.15 K, x1 = 7.03e-06) of 0.00396 ± 0.00024 S/m and an electrical conductivity (313.15 K, x1 = 7.39e-06) of 0.00412 ± 0.00025 S/m. It also gave an electrical conductivity (313.15 K, x1 = 7.75e-06) of 0.00431 ± 0.00026 S/m, an electrical conductivity (313.15 K, x1 = 8.11e-06) of 0.00447 ± 0.00027 S/m and an electrical conductivity (313.15 K, x1 = 8.65e-06) of 0.00464 ± 0.00028 S/m.

`CCCCCCCCCCCCCC[P+](CCCCCC)(CCCCCC)CCCCCC.O=S(=O)([N-]S(=O)(=O)C(F)(F)F)C(F)(F)F` + O showed a viscosity (328.15 K, 100 kPa, x2 = 0.088) of 65.75 ± 0.61 mPa·s.
